In the data set the test system is New Zealand White rabbits. To be noted: rabbit, in vivo, sc. As for the experimental part:
100 female New Zealand White rabbits were tested according to the study design detailed below (Table 2). The vehicle/adjuvant and test article were administered via intramuscular injection. […] The pumps were surgically implanted subcutaneously. The dose volume of the test article and vehicle was 0.5 ml/kg. The dose rate of the pumps was approximately 5 μl/hr.
The test article and vehicle/adjuvant formulations were administered to the study animals once at 30 days prior to gestation, once at 9 days prior to gestation, and once on day 12 of gestation.

With `CN1CCCC1c1cccnc1` (stereo not drawn) [Nicotine], the gestation food consumption entry was “significantly decreased” and the maternal body weight entry is reported as “decrease in maternal body weight”. This compound also registered a Mortality (female, New Zealand White) of 3. Also, where the note is “female”, the “Number of Does: Abortion” value is 5, the “Number of Does: Found dead/euthanized in extremis” value is 2, the “Number of Does: No. Delivered” value was determined as 11 and the “Number of Does: No. Survived Day 28” value was found to be 6. Besides, where the note is “female”, the “Number of Does: No. whole litters dead” value is on record as 4, the “Number of Does: Not Pregnant” value was found to be 2, the “Number of Kits (Mean) LD 0-7” value was determined as 47.8 and the “Number of Kits (Mean) LD 7-14” value turned out to be 100.0. Further, where the note is “female”, the “Number of Kits (Mean) LD 14-21” value amounted to 100.0; the “Number of Kits (Mean) LD 21-28” value stood at 100.0; the “mean lactation index, representing kit survival from lactation day 0-7” value is 47.8%; the “mean number of kits born” value is recorded as 6.8 kits/liter.

The values above are taken from patent US7547712B2 (priority 2006, dated 2009).
